What is called IC50 is the concentration that inhibits the measured activity by half. Read a high IC50 as weaker potency.

Chain of EGFR (human) (P00533 whole entry, looked up): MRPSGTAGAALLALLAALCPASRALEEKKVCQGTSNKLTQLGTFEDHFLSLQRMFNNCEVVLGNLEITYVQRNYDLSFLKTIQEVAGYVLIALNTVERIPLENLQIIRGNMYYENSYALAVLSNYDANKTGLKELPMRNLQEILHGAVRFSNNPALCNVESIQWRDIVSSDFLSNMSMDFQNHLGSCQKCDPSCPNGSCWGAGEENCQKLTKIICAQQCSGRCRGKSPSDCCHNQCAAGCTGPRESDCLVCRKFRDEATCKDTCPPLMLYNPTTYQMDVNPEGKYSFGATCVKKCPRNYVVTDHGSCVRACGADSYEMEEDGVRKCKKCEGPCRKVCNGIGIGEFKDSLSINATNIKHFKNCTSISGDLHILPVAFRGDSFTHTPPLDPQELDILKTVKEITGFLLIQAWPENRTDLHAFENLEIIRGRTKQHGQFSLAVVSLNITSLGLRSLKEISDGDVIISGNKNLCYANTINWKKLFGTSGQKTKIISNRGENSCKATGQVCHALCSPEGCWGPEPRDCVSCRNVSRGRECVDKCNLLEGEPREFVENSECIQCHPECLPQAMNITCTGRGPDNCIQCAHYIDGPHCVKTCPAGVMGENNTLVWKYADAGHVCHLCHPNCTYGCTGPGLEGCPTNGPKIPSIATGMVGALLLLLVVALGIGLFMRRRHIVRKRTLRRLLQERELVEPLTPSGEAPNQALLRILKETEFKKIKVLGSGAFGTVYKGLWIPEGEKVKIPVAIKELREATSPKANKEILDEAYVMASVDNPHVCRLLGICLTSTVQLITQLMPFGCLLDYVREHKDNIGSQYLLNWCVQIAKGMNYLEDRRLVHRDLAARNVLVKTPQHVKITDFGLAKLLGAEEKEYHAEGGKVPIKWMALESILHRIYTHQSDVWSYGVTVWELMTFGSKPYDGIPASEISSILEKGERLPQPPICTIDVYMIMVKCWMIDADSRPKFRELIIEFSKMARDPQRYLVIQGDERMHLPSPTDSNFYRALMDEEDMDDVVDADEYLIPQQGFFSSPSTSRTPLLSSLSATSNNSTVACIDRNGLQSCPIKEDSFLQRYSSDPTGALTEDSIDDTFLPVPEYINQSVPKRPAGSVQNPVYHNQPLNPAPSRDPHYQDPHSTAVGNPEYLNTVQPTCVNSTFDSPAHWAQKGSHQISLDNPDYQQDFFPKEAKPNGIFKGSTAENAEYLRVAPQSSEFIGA

This assay has as its target EGFR (human) (UniProt P00533). Conditions: A431.
The compound `Oc1ccc(CNc2ccc(O)cc2)cc1` returned an IC50 of 33 µM.
Regarding `Oc1cccc(N=Cc2ccccc2O)c1`, the IC50 is greater than 140 µM.
Take `Oc1ccc(CNc2cccc(O)c2)cc1`: the IC50 was greater than 140 µM.
With `Oc1ccc(C=Nc2ccc(O)cc2)cc1`, the 50% inhibitory concentration (IC50) is greater than 140 µM.
The compound `Oc1cccc(CNc2cccc(O)c2)c1` showed an IC50 greater than 140 µM.
For `Oc1cccc(C=Nc2ccccc2O)c1`, the IC50 came to 108 µM.
On to `Oc1ccc(NCc2cccc(O)c2)cc1`, for which the IC50 was greater than 140 µM.
Take `Oc1ccc(C=Nc2cccc(O)c2)cc1`: the IC50 is greater than 140 µM.
Turning to `Oc1ccc(N=Cc2cccc(O)c2)cc1`, the IC50 was determined as 33 µM.
The compound `Oc1ccc(CNc2ccccc2O)cc1` yielded an IC50 greater than 140 µM.
`Oc1ccccc1C=Nc1ccccc1O` came in with an IC50 greater than 140 µM.
For the compound `Oc1ccc(N=Cc2ccccc2O)cc1`, the IC50 was 92 µM.
In turn, `Oc1cccc(NCc2ccccc2O)c1` had an IC50 greater than 140 µM.
In turn, `Oc1cccc(C=Nc2cccc(O)c2)c1` showed an IC50 greater than 140 µM.
Compound `Oc1ccc(NCc2ccccc2O)cc1` showed an IC50 greater than 140 µM.
On to `Oc1ccc(C=Nc2ccccc2O)cc1`, for which the IC50 was greater than 140 µM.
`Oc1cccc(CNc2ccccc2O)c1` came in with an IC50 greater than 140 µM.
Compound `Oc1ccccc1CNc1ccccc1O` had an IC50 greater than 140 µM.
`O=C(O)c1cc(N(Cc2ccccc2O)Cc2cc(O)ccc2O)ccc1O` displayed an IC50 of 0.4 µM.

Values taken from the Kinase Knowledgebase extract (Sharma et al. 2016).
